From ChEMBL document CHEMBL5442219

Tests used:
Details in all cases: Compound concentration 10 µM
[1] = biological target: T1, Alpha-2B adrenergic receptor (Homo sapiens) (UniProt P18089)
T1 sequence (whole entry): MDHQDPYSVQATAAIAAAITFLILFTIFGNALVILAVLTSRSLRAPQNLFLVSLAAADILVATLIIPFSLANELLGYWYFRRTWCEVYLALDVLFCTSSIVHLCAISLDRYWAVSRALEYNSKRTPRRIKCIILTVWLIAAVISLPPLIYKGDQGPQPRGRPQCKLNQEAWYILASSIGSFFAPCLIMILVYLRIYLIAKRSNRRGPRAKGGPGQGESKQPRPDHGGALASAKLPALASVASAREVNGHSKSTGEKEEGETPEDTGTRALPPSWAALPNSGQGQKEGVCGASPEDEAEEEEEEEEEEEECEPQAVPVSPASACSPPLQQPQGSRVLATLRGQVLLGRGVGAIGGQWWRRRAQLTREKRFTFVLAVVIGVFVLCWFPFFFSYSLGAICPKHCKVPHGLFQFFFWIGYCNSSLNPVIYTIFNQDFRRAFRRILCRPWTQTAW

[2] = biological target: Sodium-dependent dopamine transporter (Homo sapiens) (UniProt Q01959)
Sodium-dependent dopamine transporter (Homo sapiens), sequence (Q01959 whole entry): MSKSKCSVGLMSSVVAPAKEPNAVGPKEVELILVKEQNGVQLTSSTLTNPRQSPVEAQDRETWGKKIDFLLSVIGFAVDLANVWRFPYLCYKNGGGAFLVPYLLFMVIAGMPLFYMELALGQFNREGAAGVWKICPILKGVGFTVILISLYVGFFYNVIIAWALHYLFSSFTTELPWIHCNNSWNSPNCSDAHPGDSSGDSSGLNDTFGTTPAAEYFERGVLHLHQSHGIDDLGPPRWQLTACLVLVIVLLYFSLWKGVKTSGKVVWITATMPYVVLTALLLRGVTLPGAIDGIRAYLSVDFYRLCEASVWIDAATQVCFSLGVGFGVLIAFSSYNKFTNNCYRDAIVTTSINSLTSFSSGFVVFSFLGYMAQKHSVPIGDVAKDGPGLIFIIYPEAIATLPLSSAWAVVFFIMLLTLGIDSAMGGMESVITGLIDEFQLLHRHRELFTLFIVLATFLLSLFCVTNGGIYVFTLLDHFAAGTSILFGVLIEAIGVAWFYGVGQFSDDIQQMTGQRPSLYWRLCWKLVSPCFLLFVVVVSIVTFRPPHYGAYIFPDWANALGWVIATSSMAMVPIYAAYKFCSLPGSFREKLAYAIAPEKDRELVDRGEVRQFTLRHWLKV

[3] = biological target: T2, D(4) dopamine receptor (Homo sapiens) (UniProt P21917)
T2 sequence (whole entry): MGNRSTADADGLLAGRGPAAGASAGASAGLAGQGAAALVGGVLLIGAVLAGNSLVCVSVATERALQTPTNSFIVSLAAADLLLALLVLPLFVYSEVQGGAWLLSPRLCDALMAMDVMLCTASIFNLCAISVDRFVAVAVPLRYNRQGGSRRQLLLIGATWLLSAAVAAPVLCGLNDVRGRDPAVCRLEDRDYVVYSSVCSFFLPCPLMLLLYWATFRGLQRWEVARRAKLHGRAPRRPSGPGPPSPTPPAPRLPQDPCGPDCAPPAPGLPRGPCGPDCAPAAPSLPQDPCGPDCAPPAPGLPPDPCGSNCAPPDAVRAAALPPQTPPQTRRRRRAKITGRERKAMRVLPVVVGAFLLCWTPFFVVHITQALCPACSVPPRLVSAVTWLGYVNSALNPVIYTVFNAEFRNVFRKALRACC

[4] = biological target: D(2) dopamine receptor (Homo sapiens) (UniProt P14416)
D(2) dopamine receptor (Homo sapiens), sequence (P14416 whole entry): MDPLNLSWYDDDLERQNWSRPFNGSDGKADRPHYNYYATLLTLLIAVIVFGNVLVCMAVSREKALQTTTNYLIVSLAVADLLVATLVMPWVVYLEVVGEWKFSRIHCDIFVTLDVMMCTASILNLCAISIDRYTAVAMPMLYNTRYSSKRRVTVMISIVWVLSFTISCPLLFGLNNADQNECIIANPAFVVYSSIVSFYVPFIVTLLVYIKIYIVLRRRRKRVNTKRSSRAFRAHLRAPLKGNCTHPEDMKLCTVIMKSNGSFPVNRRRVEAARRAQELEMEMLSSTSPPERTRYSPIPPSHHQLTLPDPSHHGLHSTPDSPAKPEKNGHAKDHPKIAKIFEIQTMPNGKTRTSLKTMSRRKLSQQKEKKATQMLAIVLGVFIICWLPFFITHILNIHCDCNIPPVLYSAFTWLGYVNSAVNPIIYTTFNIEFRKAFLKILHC

[5] = biological target: T3, Muscarinic acetylcholine receptor M4 (Homo sapiens) (UniProt P08173)
T3 sequence (whole entry): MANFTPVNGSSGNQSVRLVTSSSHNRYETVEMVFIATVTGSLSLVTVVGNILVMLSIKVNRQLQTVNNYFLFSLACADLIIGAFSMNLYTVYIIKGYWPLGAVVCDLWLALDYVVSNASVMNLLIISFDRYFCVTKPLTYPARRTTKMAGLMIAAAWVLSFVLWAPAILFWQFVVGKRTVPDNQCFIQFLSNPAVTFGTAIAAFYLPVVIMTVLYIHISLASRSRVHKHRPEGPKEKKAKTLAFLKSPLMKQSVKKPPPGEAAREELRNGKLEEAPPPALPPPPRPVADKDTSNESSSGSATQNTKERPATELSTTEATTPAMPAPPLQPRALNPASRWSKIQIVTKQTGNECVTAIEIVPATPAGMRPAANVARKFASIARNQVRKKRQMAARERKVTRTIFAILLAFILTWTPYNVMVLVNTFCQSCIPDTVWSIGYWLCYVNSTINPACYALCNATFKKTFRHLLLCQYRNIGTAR

[6] = biological target: Sigma non-opioid intracellular receptor 1 (Homo sapiens) (UniProt Q99720)
Sigma non-opioid intracellular receptor 1 (Homo sapiens), sequence (Q99720 whole entry): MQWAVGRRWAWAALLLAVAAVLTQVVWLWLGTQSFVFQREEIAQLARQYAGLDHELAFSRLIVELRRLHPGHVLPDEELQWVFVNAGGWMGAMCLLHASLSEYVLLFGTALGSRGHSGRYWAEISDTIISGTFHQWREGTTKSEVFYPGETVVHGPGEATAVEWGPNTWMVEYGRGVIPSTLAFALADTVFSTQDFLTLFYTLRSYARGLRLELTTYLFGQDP

[7] = biological target: Sodium-dependent noradrenaline transporter (Homo sapiens) (UniProt P23975)
Sodium-dependent noradrenaline transporter (Homo sapiens), sequence (P23975 whole entry): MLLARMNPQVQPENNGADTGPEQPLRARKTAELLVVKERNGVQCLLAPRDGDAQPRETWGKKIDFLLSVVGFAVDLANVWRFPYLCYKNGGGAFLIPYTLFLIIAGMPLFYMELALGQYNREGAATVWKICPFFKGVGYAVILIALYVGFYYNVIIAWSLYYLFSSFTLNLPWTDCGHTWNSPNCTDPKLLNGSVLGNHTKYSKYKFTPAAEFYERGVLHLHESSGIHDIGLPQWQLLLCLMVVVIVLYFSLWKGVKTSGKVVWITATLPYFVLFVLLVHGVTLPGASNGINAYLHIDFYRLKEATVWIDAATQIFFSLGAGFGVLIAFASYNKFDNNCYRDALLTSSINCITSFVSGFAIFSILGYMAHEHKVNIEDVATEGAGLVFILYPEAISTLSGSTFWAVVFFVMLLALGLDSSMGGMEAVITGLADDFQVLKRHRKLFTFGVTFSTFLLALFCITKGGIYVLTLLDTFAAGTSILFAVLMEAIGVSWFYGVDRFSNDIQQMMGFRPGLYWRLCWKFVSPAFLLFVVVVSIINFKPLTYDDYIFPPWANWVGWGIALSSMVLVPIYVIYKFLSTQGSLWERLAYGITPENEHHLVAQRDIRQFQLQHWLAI

[8] = biological target: T4, 5-hydroxytryptamine receptor 2C (Homo sapiens) (UniProt P28335)
T4 sequence (whole entry): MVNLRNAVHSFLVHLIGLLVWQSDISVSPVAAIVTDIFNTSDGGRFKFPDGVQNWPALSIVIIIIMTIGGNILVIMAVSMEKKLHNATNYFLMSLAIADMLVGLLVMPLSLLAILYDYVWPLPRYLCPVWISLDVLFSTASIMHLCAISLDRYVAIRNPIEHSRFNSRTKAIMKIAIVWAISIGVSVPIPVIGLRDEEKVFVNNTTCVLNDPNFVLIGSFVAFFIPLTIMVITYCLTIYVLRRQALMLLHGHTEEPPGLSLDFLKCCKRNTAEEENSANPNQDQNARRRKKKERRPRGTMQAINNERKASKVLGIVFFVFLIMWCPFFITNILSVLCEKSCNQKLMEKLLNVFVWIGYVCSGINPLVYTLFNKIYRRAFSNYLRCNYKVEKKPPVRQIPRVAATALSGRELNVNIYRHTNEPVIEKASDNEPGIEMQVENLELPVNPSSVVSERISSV

[9] = biological target: T5, Alpha-2C adrenergic receptor (Homo sapiens) (UniProt P18825)
T5 sequence (whole entry): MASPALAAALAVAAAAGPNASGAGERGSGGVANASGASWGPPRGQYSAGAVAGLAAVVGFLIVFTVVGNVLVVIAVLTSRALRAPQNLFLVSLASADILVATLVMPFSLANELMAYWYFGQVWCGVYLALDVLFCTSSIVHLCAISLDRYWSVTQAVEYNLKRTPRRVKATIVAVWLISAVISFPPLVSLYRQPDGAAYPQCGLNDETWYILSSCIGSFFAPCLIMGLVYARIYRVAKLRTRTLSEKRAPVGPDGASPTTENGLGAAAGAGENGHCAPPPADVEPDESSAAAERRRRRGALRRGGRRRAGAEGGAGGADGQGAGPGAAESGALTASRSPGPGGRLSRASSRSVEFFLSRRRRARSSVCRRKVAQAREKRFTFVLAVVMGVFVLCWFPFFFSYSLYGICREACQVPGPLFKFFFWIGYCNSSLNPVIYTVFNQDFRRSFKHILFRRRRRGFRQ

[10] = biological target: 5-hydroxytryptamine receptor 1B (Homo sapiens) (UniProt P28222)
5-hydroxytryptamine receptor 1B (Homo sapiens), sequence (P28222 whole entry): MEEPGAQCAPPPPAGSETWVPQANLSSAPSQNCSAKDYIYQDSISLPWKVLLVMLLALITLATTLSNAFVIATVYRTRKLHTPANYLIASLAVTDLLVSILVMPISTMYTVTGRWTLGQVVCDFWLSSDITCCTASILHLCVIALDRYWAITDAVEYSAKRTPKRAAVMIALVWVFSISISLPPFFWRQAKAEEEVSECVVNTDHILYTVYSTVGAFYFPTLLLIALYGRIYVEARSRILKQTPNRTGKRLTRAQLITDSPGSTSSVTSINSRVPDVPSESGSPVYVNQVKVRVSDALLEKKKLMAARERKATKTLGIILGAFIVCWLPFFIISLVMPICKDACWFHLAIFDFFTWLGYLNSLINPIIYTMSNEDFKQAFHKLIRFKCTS

[11] = biological target: 5-hydroxytryptamine receptor 7 (Homo sapiens) (UniProt P34969)
5-hydroxytryptamine receptor 7 (Homo sapiens), sequence (P34969 whole entry): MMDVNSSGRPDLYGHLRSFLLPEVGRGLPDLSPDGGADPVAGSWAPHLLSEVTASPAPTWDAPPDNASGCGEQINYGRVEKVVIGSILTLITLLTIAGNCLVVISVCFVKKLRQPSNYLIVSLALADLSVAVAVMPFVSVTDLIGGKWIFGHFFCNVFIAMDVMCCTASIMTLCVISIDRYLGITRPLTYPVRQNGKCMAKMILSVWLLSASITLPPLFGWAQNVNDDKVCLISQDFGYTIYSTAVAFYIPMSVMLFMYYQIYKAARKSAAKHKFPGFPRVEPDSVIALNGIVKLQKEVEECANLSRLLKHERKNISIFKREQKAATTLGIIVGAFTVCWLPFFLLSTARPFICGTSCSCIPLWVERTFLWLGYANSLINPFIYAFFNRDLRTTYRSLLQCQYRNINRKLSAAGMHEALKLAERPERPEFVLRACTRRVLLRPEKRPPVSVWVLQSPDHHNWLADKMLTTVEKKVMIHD

[12] = biological target: Histamine H3 receptor (Homo sapiens) (UniProt Q9Y5N1)
Histamine H3 receptor (Homo sapiens), sequence (Q9Y5N1 whole entry): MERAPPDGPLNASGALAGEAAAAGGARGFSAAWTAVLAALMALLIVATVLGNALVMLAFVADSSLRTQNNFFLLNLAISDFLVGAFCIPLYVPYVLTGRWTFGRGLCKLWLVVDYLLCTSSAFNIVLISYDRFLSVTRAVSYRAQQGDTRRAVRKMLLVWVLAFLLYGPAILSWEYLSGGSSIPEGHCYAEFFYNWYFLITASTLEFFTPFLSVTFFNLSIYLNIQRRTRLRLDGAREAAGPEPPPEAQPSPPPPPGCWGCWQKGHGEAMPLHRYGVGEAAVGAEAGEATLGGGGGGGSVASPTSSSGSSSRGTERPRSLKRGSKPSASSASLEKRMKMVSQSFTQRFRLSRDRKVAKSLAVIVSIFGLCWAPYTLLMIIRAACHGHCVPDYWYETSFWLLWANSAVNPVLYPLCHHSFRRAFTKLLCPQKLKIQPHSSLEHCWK

[13] = biological target: Histamine H2 receptor (Homo sapiens) (UniProt P25021)
Histamine H2 receptor (Homo sapiens), sequence (P25021 whole entry): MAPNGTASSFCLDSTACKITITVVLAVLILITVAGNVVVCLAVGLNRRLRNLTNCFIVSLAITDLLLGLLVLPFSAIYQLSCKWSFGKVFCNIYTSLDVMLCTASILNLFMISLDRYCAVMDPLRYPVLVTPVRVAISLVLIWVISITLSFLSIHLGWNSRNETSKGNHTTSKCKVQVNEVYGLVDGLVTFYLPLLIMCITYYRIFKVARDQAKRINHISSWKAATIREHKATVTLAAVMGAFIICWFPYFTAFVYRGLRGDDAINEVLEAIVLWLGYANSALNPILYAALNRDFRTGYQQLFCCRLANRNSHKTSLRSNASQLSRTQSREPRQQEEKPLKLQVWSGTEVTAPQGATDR

[14] = biological target: Sodium-dependent serotonin transporter (Homo sapiens) (UniProt P31645)
Sodium-dependent serotonin transporter (Homo sapiens), sequence (P31645 whole entry, looked up): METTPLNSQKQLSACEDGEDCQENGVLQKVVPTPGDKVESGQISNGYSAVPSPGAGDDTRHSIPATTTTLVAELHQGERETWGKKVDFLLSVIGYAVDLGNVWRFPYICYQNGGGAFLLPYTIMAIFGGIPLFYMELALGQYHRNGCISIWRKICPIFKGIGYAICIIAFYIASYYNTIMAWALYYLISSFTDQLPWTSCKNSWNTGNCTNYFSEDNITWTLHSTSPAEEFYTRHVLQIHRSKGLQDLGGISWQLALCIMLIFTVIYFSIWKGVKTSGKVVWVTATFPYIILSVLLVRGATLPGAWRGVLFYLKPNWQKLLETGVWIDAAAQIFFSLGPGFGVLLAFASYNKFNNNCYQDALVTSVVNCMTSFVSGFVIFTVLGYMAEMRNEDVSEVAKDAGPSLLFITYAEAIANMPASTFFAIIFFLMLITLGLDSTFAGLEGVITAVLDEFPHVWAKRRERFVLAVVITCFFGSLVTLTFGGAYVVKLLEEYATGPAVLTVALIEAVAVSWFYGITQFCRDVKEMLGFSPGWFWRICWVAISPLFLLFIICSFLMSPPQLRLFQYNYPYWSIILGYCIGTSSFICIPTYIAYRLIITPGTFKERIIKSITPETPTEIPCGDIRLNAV

[15] = biological target: Histamine H4 receptor (Homo sapiens) (UniProt Q9H3N8)
Histamine H4 receptor (Homo sapiens), sequence (Q9H3N8 whole entry): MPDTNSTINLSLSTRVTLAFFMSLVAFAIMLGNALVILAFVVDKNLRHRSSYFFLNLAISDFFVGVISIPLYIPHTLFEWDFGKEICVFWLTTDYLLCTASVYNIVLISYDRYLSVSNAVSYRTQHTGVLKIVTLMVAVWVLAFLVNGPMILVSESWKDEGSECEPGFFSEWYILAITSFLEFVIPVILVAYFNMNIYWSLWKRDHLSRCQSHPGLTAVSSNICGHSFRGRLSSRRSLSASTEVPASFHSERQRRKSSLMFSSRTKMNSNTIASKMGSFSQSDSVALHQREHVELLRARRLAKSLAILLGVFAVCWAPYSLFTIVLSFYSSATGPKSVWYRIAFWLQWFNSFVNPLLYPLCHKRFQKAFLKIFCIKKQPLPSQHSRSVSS

| SMILES | inhibition [1] [%] | inhibition [2] [%] | inhibition [3] [%] | inhibition [4] [%] | inhibition [5] [%] | inhibition [6] [%] | inhibition [7] [%] | inhibition [8] [%] | inhibition [9] [%] | inhibition [10] [%] | inhibition [11] [%] | inhibition [12] [%] | inhibition [13] [%] | inhibition [14] [%] | inhibition [15] [%] |
| --- | --- | --- | --- | --- | --- | --- | --- | --- | --- | --- | --- | --- | --- | --- | --- |
| COc1cc(-n2cnc3cc(-c4ccc(Cl)cc4)sc3c2=O)ccc1OCCN1CCCC1 | 47.6 | 66.4 | 32.4 | 30.2 | 73.8 | 98.9 | 80.4 | 79.9 | 71.9 | 42.5 | 16.4 | 88.9 | 18.7 | 85.8 | 58.1 |
| CCOC(=O)c1c(C)[nH]c2ccc3c(c12)CN1CCc2cc(OC)ccc2C1O3 (centres undefined) | 60 | 82.9 | -5.53 | 4.19 | 92.3 | 29.3 | 51 |  | 95 | 54 | 9.23 | -2.82 | 57.5 | 6.67 | 29.1 |
| C[C@@H](NCCCc1cccc(C(F)(F)F)c1)c1cccc2ccccc12 | 39.4 | 70.4 | 48 | 25.8 | -2.86 |  | 60.8 | 72.6 | 77.9 | 27.5 | 51.6 | 18.1 | 62.1 | 62.7 | 14 |
| COc1ccc(NS(=O)(=O)c2sc3ccc(Cl)cc3c2C)cc1N1CCNCC1 | 35.1 | 63.1 | 0.64 | 37.4 | 5.58 | 83.6 | 61.7 | 51.7 | 35.2 | 48.8 | 38.3 | 16.6 | 13.5 | 37.7 | 18.2 |
| CN1C2CCC1CC(OC(c1ccc(F)cc1)c1ccc(F)cc1)C2 (centres undefined) |  | 96.9 | 21 | 67.8 | 95.6 | 93.6 | 102 | 92.9 |  | 27.7 | 92.4 | -0.82 | 86.9 | 15.4 | 67.8 |
| CCCCN(CCCC)C(=O)CN1C[C@@H](c2ccc3c(c2)OCO3)[C@H](C(=O)O)[C@H]1c1ccc(OC)cc1 | 2.24 | 25.8 | 60.5 | 21.1 | 7.9 | 59.9 | 5.56 |  | -5.48 | -0.63 | -7.92 | -6.84 | 31 | -9.18 | 4.49 |
| Clc1cccc(COc2cncc(N3CCNCC3)n2)c1 | 36.1 | 33.5 | 42.2 | 3.43 | 85.7 | 96 | 20.2 | 94.9 | 36.9 | 89 | 87.1 | 20.2 | 14.4 | 2.44 | 49.1 |
| COc1cccc([C@@H](C)NCCCc2ccccc2Cl)c1 | 72.4 | 31.1 | 32.2 | 43.9 | 27.2 | 97.4 | 64.6 | 91.8 | 79.9 | 22.4 | 48.8 | 26.7 | 72.6 | 26.1 | 0 |
| CCc1ccc(OCc2ccccc2C(=O)Nc2ccc3nc(C)cc(N)c3c2)cc1 | 55.2 | 68.4 | 21.3 | 36.2 | 65.2 | 58.1 | 87.4 | 91.2 | 40.9 | 46.6 | 46.5 |  | 46.7 | 36 | 36.6 |
